Experiment: Particle size distribution of the drug substance
Assay type: physicochemical
Text: Tapentadol is predominantly rectangular or rod-shaped crystalline powder. […] The D10 can be as low as 5 microns while the D99 can be as high as 500 microns. Although, the particle size distribution of the drug substance is controlled during crystallization, milling or micronizing the API to less than a micron size would not affect processability, as described herein, or the attribute of the drug product. Other APIs with similar properties such as Tramadol are expected to have a similar behavior.

CC[C@@H](c1cccc(O)c1)[C@@H](C)CN(C)C [Tapentadol]
Particle size distribution D10: ≥ 5 microns
Particle size distribution D99: ≤ 500 microns
